US7875604B2, “Compounds that inhibit HIV particle formation” (University of Virginia Patent Foundation, priority 2004, dated 2011)
Values joined by “and” are separate entries in the source; they are usually repeats but may differ in a detail not shown here. Equal values may be shown once. Read-outs that look alike come from different tables or passages of the source.

How the values were obtained:
HIV-1 NL4-3 = assay: Anti-HIV efficacy in fresh human PBMCs, reverse transcriptase readout, HIV-1 NL4-3; format: cell-based
Description: (§1) Compounds were evaluated for their ability to inhibit HIV replication in fresh human PBMCs. The assay was performed as follows.
(§2) Fresh human PBMCs, seronegative for HIV and HBV, were isolated from screened donors (Interstate Blood Bank, Inc. Memphis, Tenn.). Cells were pelleted/washed 2-3 times by low speed centrifugation and re-suspension in PBS to remove contaminating platelets. The Leukophoresed blood was then diluted 1:1 with Dulbecco's Phosphate Buffered Saline (DPBS) and layered over 14 mL of Lymphocyte Separation Medium (LSM; Cellgro® by Mediatech, Inc.; density 1.078+/−0.002 g/ml; Cat.#85-072-CL) in a 50 mL centrifuge tube and then centrifuged for 30 minutes at 600×g. Banded PBMCs were gently aspirated from the resulting interface and subsequently washed 2× with PBS by low speed centrifugation. After the final wash, cells were enumerated by trypan blue exclusion and re-suspended at 1×10^7 cells/mL in RPMI 1640 supplemented with 15% Fetal Bovine Serum (FBS), and 2 mM L-glutamine, 4 μg/mL Phytohemagglutinin (PHA-P, Sigma). The cells were allowed to incubate for 48-72 hours at 37° C. After incubation, PBMCs were centrifuged and resuspended in RPMI 1640 with 15% FBS, 2 mM L-glutamine, 100 U/mL penicillin, 100 μg/mL streptomycin, 10 μg/mL gentamycin, and 20 U/mL recombinant human IL-2 (R&D Systems, Inc). IL-2 is included in the culture medium to maintain the cell division initiated by the PHA mitogenic stimulation. PBMCs were maintained in this medium at a concentration of 1-2×10^6 cells/mL with biweekly medium changes until used in the assay protocol. Cells were kept in culture for a maximum of two weeks before being deemed too old for use in assays and discarded. Monocytes were depleted from the culture as the result of adherence to the tissue culture flask.
(§3) For the standard PBMC assay, PHA-P stimulated cells from at least two normal donors were pooled (mixed together), diluted in fresh medium to a final concentration of 1×10^6 cells/mL, and plated in the interior wells of a 96 well round bottom microplate at 50 μL/well (5×10^4 cells/well) in a standard format developed by the Infectious Disease Research department of Southern Research Institute. Pooling (mixing) of mononuclear cells from more than one donor is used to minimize the variability observed between individual donors, which results from quantitative and qualitative differences in HIV infection and overall response to the PHA and IL-2 of primary lymphocyte populations. Each plate contains virus/cell control wells (cells plus virus), experimental wells (drug plus cells plus virus) and compound control wells (drug plus media without cells, necessary for MTS monitoring of cytotoxicity). Since HIV-1 is not cytopathic to PBMCs, this allows the use of the same assay plate for both antiviral activity and cytotoxicity measurements. Test drug dilutions were prepared at a 2× concentration in microtiter tubes and 100 μL of each concentration was placed in appropriate wells using the standard format. 50 μL of a predetermined dilution of virus stock was placed in each test well (final MOI≅0.1). The PBMC cultures were maintained for seven days following infection at 37° C., 5% CO2. After this period, cell-free supernatant samples were collected for analysis of reverse transcriptase activity as a measure of virus release. Following removal of supernatant samples, compound cytotoxicity was measured by addition of MTS to the plates for determination of cell viability. Wells were also examined microscopically and any abnormalities were noted.
(§4) A microtiter plate-based reverse transcriptase (RT) reaction was utilized (Buckheit et al., AIDS Research and Human Retroviruses 7:295-302, 1991). Tritiated thymidine triphosphate (3H-TTP, 80 Ci/mmol, NEN) was received in 1:1 dH2O:Ethanol at 1 mCi/mL. […]

HIV-1 BR/93/021 = assay: Anti-HIV efficacy in fresh human PBMCs, reverse transcriptase readout, HIV-1 BR/93/021; format: cell-based
Description: as §1, §2, §3, §4

fresh human PBMCs = assay: MTS staining for PBMC viability to measure cytotoxicity; format: cell-based
Description: as §3
At assay termination, assay plates were stained with the soluble tetrazolium-based dye MTS (CellTiter 96 Reagent, Promega) to determine cell viability and quantify compound toxicity. The mitochondrial enzymes of metabolically active cells metabolize MTS to yield a soluble formazan product. This allows the rapid quantitative analysis of cell viability and compound cytotoxicity. […] At termination of the assay, 20 μL of MTS reagent was added per well. The microtiter plates were then incubated 4-6 hrs at 37° C. The incubation intervals were chosen based on empirically determined times for optimal dye reduction. Adhesive plate sealers were used in place of the lids, the sealed plate was inverted several times to mix the soluble formazan product and the plate was read spectrophotometrically at 490/650 nm with a Molecular Devices Vmax or SpectraMaxPlus plate reader.
(§5) Compounds were tested in the PBMC assay using the maximum high-test concentration possible based on the supplied stocks which are listed in table 3. Compounds were prepared at a 2× high-test concentration by combining drug stock with tissue culture media at a ratio of 5 μL of drug to 995 μL of media. This 2× high-test sample was subsequently serially diluted in tissue culture media using 1/2 log dilutions. This series of 2× concentrated drug was subsequently diluted 1:1 by combining with an equal volume of cells in media in the 96-well plates used for the assay.

U1 cells = assay: MTS staining for cell viability in U1 cell assay; format: cell-based; settings: analogs, Table 8, MTS, read-out: TC50 (the source's name)
Description: (§6) At the time of the assay, cells were collected by centrifugation and counted by hemacytometer. If cell viability by Trypan Blue dye exclusion was less than 70% the assay was terminated. The cells were adjusted to 5×10^4 cells/mL and 100 μL placed in 96 well plates with 100 μL media containing a final concentration of 5 ng/mL TNF-α and the test compound. Cultures were incubated for 3 days and supernatants harvested. Compound toxicity was determined by MTS dye reduction. Virus expression was measured by supernatant reverse transcriptase activity.
(§7) At assay termination, the assay plates were stained with the soluble tetrazolium-based dye MTS (CellTiter 96 Reagent, Promega) to determine cell viability and quantify compound toxicity as described for the PBMC assay.
as §5, with “U1 latency” for “PBMC”, “3. Compounds were tested using the maximum high-test concentration possible based on the supplied stocks.” for “3.”, “assay. Temacrazine a known inhibitor of HIV transcription was used as a control compound that is active in the post-integration part of the HIV life cycle.” for “assay.”
as §5, with “were tested using the” for “were tested in the PBMC assay using the”, “the supplied stocks. Compounds were” for “the supplied stocks which are listed in table 3. Compounds were”, “2× high-test (HT) sample was” for “2× high-test sample was”

[1] = tested on: U1 cells latently infected with HIV-1; assay: U1 latency activation assay (TNF-α induced, supernatant reverse transcriptase); format: cell-based; settings: U1 cell assay
Description: U1 cells were obtained from the AIDS Research and Reference Reagent Program and maintained under standard culture conditions in RPMI 1640 supplemented with 10% fetal bovine serum (heat inactivated), 2 mM L-glutamine, 100 U/mL penicillin and 100 μg/mL streptomycin. U1 cells are derived from the histocytic leukemia cell line U937, and contain an integrated copy of a cytokine and/or phorbol inducible provirus (HIV-1IIIB). Cultures were maintained in such a way as to ensure exponential growth of the populations. Addition of TNF-α to the cell culture induces HIV-1, so that inhibition of virus production indicates an inhibition of a post-integration function of the HIV-1 life cycle. This is where an inhibitor of Rev function would be expected to act. […]
as §6
Reverse transcriptase was assayed to measure virus particle release as described above for the PBMC assay.
as §5, with “U1 latency” for “PBMC”, “3. Compounds were tested using the maximum high-test concentration possible based on the supplied stocks.” for “3.”, “assay. Temacrazine a known inhibitor of HIV transcription was used as a control compound that is active in the post-integration part of the HIV life cycle.” for “assay.”
as §5, with “were tested using the” for “were tested in the PBMC assay using the”, “the supplied stocks. Compounds were” for “the supplied stocks which are listed in table 3. Compounds were”, “2× high-test (HT) sample was” for “2× high-test sample was”

HIV-1 Rev = biological target: T1, HIV-1 Rev (Human immunodeficiency virus type 1 group M subtype B, UniProt P04618); assay: cell-based
T1 construct: expressed in transfected cells
T1 sequence (P04618 whole entry, looked up): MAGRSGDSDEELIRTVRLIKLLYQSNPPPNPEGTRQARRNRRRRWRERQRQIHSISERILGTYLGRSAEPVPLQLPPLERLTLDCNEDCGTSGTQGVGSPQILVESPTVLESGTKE
Description: The eight compounds listed in Table 1 were also tested in an assay that measured HIV-1 Rev function. […] The reporter used for these assays is the Renilla Luciferase protein, which is an enzyme that produces detectable light when mixed with certain chemicals. For this assay, a cell line has been developed in which the production of the reporter by the cells requires the function of HIV-1 Rev. Therefore, if a drug candidate inhibits the function of Rev, it decreases the amount of the reporter produced by the cells. By using Renilla Luciferase as the reporter, the inhibition of Rev is easily detected as a decrease in the amount of light produced by the cells when mixed with the appropriate chemicals.
as §5, with “Rev” for “PBMC”, “as shown” for “which are listed”, “Table” for “table”

HeLa = assay: HIV-1 Rev assay toxicity/non-specificity readout (Firefly Luciferase); format: cell-based; settings: 50% inhibition of Firefly Luciferase (toxicity/non-specificity), 24 hours; read-out: TC50 (the source's name)
Description: The eight compounds listed in Table 1 were also tested in an assay that measured HIV-1 Rev function. The HIV-1 Rev assay is based upon the use of a reporter for detecting whether drug candidates are capable of inhibiting the function of the viral Rev protein. The reporter used for these assays is the Renilla Luciferase protein, which is an enzyme that produces detectable light when mixed with certain chemicals. For this assay, a cell line has been developed in which the production of the reporter by the cells requires the function of HIV-1 Rev. Therefore, if a drug candidate inhibits the function of Rev, it decreases the amount of the reporter produced by the cells. By using Renilla Luciferase as the reporter, the inhibition of Rev is easily detected as a decrease in the amount of light produced by the cells when mixed with the appropriate chemicals. Furthermore, the cell line for this assay has been engineered to use a second similar reporter (Firefly Luciferase) that detects whether drug candidates are toxic.
as §5, with “Rev” for “PBMC”, “as shown” for “which are listed”, “Table” for “table”, “assay. Representative data for two of the compounds is also depicted in FIG. 5.” for “assay.”
Leptomycin B is a control compound known to inhibit Rev function.

[2] = MTS staining for cell viability in U1 cell assay; format: cell-based; settings: human, U1 cells stimulated with TNF-α, read-out: TC50
Description: as §6, §7
as §5, with “U1 latency” for “PBMC”, “3. Compounds were tested using the maximum high-test concentration possible based on the supplied stocks.” for “3.”, “assay. Temacrazine a known inhibitor of HIV transcription was used as a control compound that is active in the post-integration part of the HIV life cycle.” for “assay.”
as §5, with “were tested using the” for “were tested in the PBMC assay using the”, “the supplied stocks. Compounds were” for “the supplied stocks which are listed in table 3. Compounds were”, “2× high-test (HT) sample was” for “2× high-test sample was”

| SMILES | CC50 (U1 cells) | IC50 ([1]; analogs, Table 8) | also measured |
| --- | --- | --- | --- |
| Cc1cn([C@H]2C[C@H](N=[N+]=[N-])[C@@H](CO)O2)c(=O)[nH]c1=O [AZT, reference compound] |  |  | TI (TC50/IC50) (HIV-1 NL4-3; HIV-1 NL4-3, PBMCs): >1612.90; IC50 (HIV-1 NL4-3; HIV-1 NL4-3, fresh human PBMCs, seven days, RT activity): 0.00062 µM; TI (TC50/IC50) (HIV-1 BR/93/021; HIV-1 BR/93/021, PBMCs): >404.86; IC50 (HIV-1 BR/93/021; HIV-1 BR/93/021, fresh human PBMCs, seven days, RT activity): 0.00247 µM; CC50 (fresh human PBMCs): > 1 µM |
| Fc1ccccc1-c1nc(Nc2cccc(C(F)(F)F)c2)c2ccccc2n1 [Compound 748] | 33 µM | 10.5 µM |  |
| COc1ccc(Nc2nc(-c3ccccc3F)nc3ccccc23)cc1 [Compound 749] | 19.5 µM | 2.05 µM |  |
| Oc1ccccc1-c1nc(Nc2ccc(F)c(F)c2)c2ccccc2n1 [Compound 750] | > 75 µM | > 75 µM |  |
| COc1ccccc1Nc1nc(-c2ccccc2O)nc2ccccc12 [Compound 751] | > 75 µM | 71.4 µM |  |
| COC(=O)c1cccc(Nc2nc(-c3ccccc3O)nc3ccccc23)c1 [Compound 752] | > 75 µM | > 75 µM |  |
| Clc1ccc(-c2nc(Nc3ccc(Oc4ccccc4)cc3)c3ccccc3n2)cc1 [Compound 753] | 48 µM | 47.1 µM |  |
| CC(=O)Nc1ccc(Nc2nc(-c3ccccc3)nc3ccccc23)cc1 [Compound 754] | 15.1 µM | 3.69 µM |  |
| CC(=O)c1ccc(Nc2nc(-c3ccccc3)nc3ccccc23)cc1 [Compound 755] | > 75 µM | 1.78 µM |  |
| Cc1nc(Oc2ccccc2)c2ccccc2n1 [Compound 756] | 52 µM | 1.74 µM |  |
| CCC(=C/[C@H](C)C/C=C/C(C)=C/[C@@H](C)C(=O)[C@@H](C)[C@H](O)[C@@H](C)C/C(C)=C/C(=O)O)/C=C/[C@@H]1OC(=O)C=C[C@@H]1C [Leptomycin B, reference compound] |  |  | IC50 (HIV-1 Rev; 50% inhibition of Renilla Luciferase, 24 hours, HeLa reporter line, read-out: IC50): 0.00822 µM and 0.00817 µM; TI (TC50/IC50) (HIV-1 Rev; Rev assay): 2.43 and 2.35; CC50 (HeLa): 0.02 µM and 0.0192 µM |
| O=c1c2ccccc2n2nnc3ccc(NCCCN4CCN(CCCNc5ccc6nnn7c8ccccc8c(=O)c5c67)CC4)c1c32 [Temacrazine, reference compound] |  |  | CC50 at 3 days ([2]; Table 6, MTS): > 0.5 µM; CC50 at 3 days ([2]; Table 8, control, MTS): > 0.5 µM; IC50 ([1]; Human immunodeficiency virus 1, 72 h, Table 6, 5 ng/mL TNF-α, 3 days, RT activity): 0.002 µM; TI (TC50/IC50) ([1]; Table 6): >250 |
